Measured values from US7235580B2, “Mitotic kinesin inhibitors” (Merck & Co., Inc., priority 2002, dated 2007).

Target: T1, human KSP motor domain (KSP(367H)) (Homo sapiens, UniProt P52732)
T1 construct: were used to amplify the motor domain and the neck linker region; made in house; host or cells: E. coli BL21 (DE3), pRSETa
T1 sequence (P52732 18-359 limits assumed): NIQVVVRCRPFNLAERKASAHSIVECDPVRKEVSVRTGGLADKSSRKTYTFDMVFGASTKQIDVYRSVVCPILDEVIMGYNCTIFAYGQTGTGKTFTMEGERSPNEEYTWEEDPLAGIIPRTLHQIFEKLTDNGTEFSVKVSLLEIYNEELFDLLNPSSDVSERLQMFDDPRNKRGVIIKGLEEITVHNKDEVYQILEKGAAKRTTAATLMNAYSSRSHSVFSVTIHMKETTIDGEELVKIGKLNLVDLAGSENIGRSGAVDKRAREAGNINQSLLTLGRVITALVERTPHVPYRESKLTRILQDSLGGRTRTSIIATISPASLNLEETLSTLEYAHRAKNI
Assay: Kinesin ATPase In Vitro Assay
Type: biochemical
Conditions: kinesin motor domain with microtubules, 1 mM ATP, 23° C.; free phosphate by quinaldine red/ammonium molybdate
Excerpt: I. Kinesin ATPase In Vitro Assay
Cloning and Expression of Human Poly-histidine Tagged KSP Motor Domain (KSP(367H))
Plasmids for the expression of the human KSP motor domain construct were cloned by PCR using a pBluescript full length human KSP construct (Blangy et al., Cell, vol. 83, pp 1159-1169, 1995) as a template. The N-terminal primer 5′-[…] (SEQ.ID.NO.: 1) and the C-terminal primer 5′-[…] […] (SEQ.ID.NO.: 2) were used to amplify the motor domain and the neck linker region. The PCR products were digested with AseI and XhoI, ligated into the NdeI/XhoI digestion product of pRSETa (Invitrogen) and transformed into E. coli BL21 (DE3).
Cells were grown at 37° C. to an OD600 of 0.5. After cooling the culture to room temperature expression of KSP was induced with 100 μM IPTG and incubation was continued overnight. Cells were pelleted by centrifugation and washed once with ice-cold PBS. Pellets were flash-frozen and stored −80° C.
Cell pellets were thawed on ice and resuspended in lysis buffer (50 mM K-HEPES, pH 8.0, 250 mM KCl, 0.1% Tween, 10 mM imidazole, 0.5 mM Mg-ATP, 1 mM PMSF, 2 mM benzimidine, 1× complete protease inhibitor cocktail (Roche)). Cell suspensions were incubated with 1 mg/ml lysozyme and 5 mM β-mercaptoethanol on ice for 10 minutes, followed by sonication (3×30 sec). All subsequent procedures were performed at 4° C. Lysates were centrifuged at 40,000×g for 40 minutes. Supernatants were diluted and loaded onto an SP Sepharose column (Pharmacia, 5 ml cartridge) in buffer A (50 mM K-HEPES, pH 6.8, 1 mM MgCl2, 1 mM EGTA, 10 μM Mg-ATP, 1 mM DTT) and eluted with a 0 to 750 mM KCl gradient in buffer A. Fractions containing KSP were pooled and incubated with Ni-NTA resin (Qiagen) for one hour. The resin was washed three times with buffer B (Lysis buffer minus PMSP and protease inhibitor cocktail), followed by three 15-minute incubations and washes with buffer B. Finally, the resin was incubated and washed for 15 minutes three times with buffer C (same as buffer B except for pH 6.0) and poured into a column. KSP was eluted with elution buffer (identical to buffer B except for 150 mM KCl and 250 mM imidazole). KSP-containing fractions were pooled, made 10% in sucrose, and stored at −80° C.
Microtubules are prepared from tubulin isolated from bovine brain. Purified tubulin (>97% MAP-free) at 1 mg/ml is polymerized at 37° C. in the presence of 10 μM paclitaxel, 1 mM DTT, 1 mM GTP in BRB80 buffer (80 mM K-PIPES, 1 mM EGTA, 1 mM MgCl2 at pH 6.8). The resulting microtubules are separated from non-polymerized tubulin by ultracentrifugation and removal of the supernatant. The pellet, containing the microtubules, is gently resuspended in 10 μM paclitaxel, 1 mM DTT, 50 μg/ml ampicillin, and 5 μg/ml chloramphenicol in BRB80.
The kinesin motor domain is incubated with microtubules, 1 mM ATP (1:1 MgCl2: Na-ATP), and compound at 23° C. in buffer containing 80 mM K-HEPES (pH 7.0), 1 mM EGTA, 1 mM DTT, 1 mM MgCl2, and 50 mM KCl. The reaction is terminated by a 2-10 fold dilution with a final buffer composition of 80 mM HEPES and 50 mM EDTA. Free phosphate from the ATP hydrolysis reaction is measured via a quinaldine red/ammonium molybdate assay by adding 150 μl of quench C buffer containing a 2:1 ratio of quench A:quench B. Quench A contains 0.1 mg/ml quinaldine red and 0.14% polyvinyl alcohol; quench B contains 12.3 mM ammonium molybdate tetrahydrate in 1.15 M sulfuric acid. The reaction is incubated for 10 minutes at 23° C., and the absorbance of the phospho-molybdate complex is measured at 540 nm.

| SMILES | IC50 |
| --- | --- |
| COC(=O)NCCCC1(c2ccccc2)C=C(c2cc(Cl)ccc2F)CN1C(=O)N(C)C (stereo not shown) [Compound 22-1, methyl 3-{4-(5-chloro-2-fluorophenyl)-1-[(dimethylamino)carbonyl]-2-phenyl-2,5-dihydro-1H-pyrrol-2-yl}propylcarbamate] | ≤ 50 µM |
| CN(C)C(=O)N1CC(c2cc(Cl)ccc2F)=CC1(CCCNC(N)=O)c1ccccc1 (stereo not shown) [Compound 23-1, 2-{3-[(aminocarbonyl)amino]propyl}-4-(5-chloro-2-fluorophenyl)-N,N-dimethyl-2-phenyl-2,5-dihydro-1H-pyrrole-1-carboxamide] | ≤ 50 µM |
| CN(C)C(=O)N1CC(c2cc(F)ccc2F)=CC1(CCC(=O)Nc1ccccc1)c1ccccc1 (stereo not shown) [Compound 24-2, 2-(3-anilino-3-oxopropyl)-4-(2,5-difluorophenyl)-N,N-dimethyl-2-phenyl-2,5-dihydro-1H-pyrrole-1-carboxamide] | ≤ 50 µM |
| CN(C)C(=O)N1CC(c2cc(F)ccc2F)=CC1(CCC(=O)NN)c1ccccc1 (stereo not shown) [Compound 25-1, 4-(2,5-difluorophenyl)-2-(3-hydrazino-3-oxopropyl)-N,N-dimethyl-2-phenyl-2,5-hydro-1H-pyrrole-1-carboxamide] | ≤ 50 µM |
| CN(C)CCCC1(c2ccccc2)C=C(c2cc(F)ccc2F)CN1C(=O)N(C)C1CCOCC1 (stereo not shown) [Compound 28-3, 4-(2,5-difluorophenyl)-2-[3-(dimethylamino)propyl]-N-methyl-2-phenyl-N-tetrahydro-2H-pyran-4-yl-2,5-dihydro-1H-pyrrole-1-carboxamide] | ≤ 50 µM |
| CN(C)CCCC1(c2ccccc2)C=C(c2cc(F)ccc2F)CN1C(=O)C(C)(C)O (stereo not shown) [Compound 29-3, 1-{4-(2,5-difluorophenyl)-2-[3-(dimethylamino)propyl]-2-phenyl-2,5-dihydro-1-pyrrol-1-yl}-2-methyl-1-oxopropan-2-ol] | ≤ 50 µM |
| CN(C)C(=O)N1CC(c2cc(F)ccc2F)=C[C@@]1(CCC(N)C(F)F)c1ccccc1 (stereo partly drawn) [Compound 31-3, (2S)-2-(3-amino-4,4-difluorobutyl)-4-(2,5-difluorophenyl)-N,N-dimethyl-2-phenyl-2,5-dihydro-1H-pyrrole-1-carboxamide] | ≤ 50 µM |

The next lines start with the values.

| IC50 | SMILES |
| --- | --- |
| ≤ 50 µM | CN(C(=O)N1CC(c2cc(F)ccc2F)=CC1(CO)c1ccccc1)C1CCN(CS(C)(=O)=O)CC1 (stereo not shown) [Compound 13-1, 4-(2,5-difluorophenyl)-2-(hydroxymethyl)-N-methyl-N-{1-[(methylsulfonyl)methyl]piperidin-4-yl}-2-phenyl-2,5-dihydro-1H-pyrrole-1-carboxamide] |
| ≤ 50 µM | CN(C(=O)N1CC(c2cc(F)ccc2F)=CC1(CO)c1ccccc1)C1CCN(C(CF)CF)CC1 (stereo not shown) [Compound 14-1] |
| ≤ 50 µM | CN(C(=O)N1CC(c2cc(F)ccc2F)=C[C@@]1(CO)c1ccccc1)C1CCN(C2CC2)CC1 [Compound 15-1, (2S)-N-(1-cyclopropylpiperidin-4-yl)-4-(2,5-difluorophenyl)-2-(hydroxymethyl)-N-methyl-2-phenyl-2,5-dihydro-1H-pyrrole-1-carboxamide] |
| ≤ 50 µM | CN(C(=O)N1CC(c2cc(F)ccc2F)=CC1(CO[Si](C)(C)C(C)(C)C)c1ccccc1)C1CCN(CC(=O)OCc2ccccc2)CC1 (stereo not shown) [Compound 16-1] |
| ≤ 50 µM | COCC1(c2ccccc2)C=C(c2cc(F)ccc2F)CN1C(=O)N(C)C1CCN(C)CC1 (stereo not shown) [Compound 18-2, 4-(2,5-difluorophenyl)-2-(methoxymethyl)-N-methyl-N-(1-methylpiperidin-4-yl)-2-phenyl-2,5-dihydro-1H-pyrrole-1-carboxamide] |
| ≤ 50 µM | CN(C)C(=O)N1CC(c2cc(Cl)ccc2F)=CC1(CCCNS(C)(=O)=O)c1ccccc1 (stereo not shown) [Compound 21-1, 4-(5-chloro-2-fluorophenyl)-N,N-dimethyl-2-{3-[(methylsulfonyl)amino]propyl}-2-phenyl-2,5-dihydro-1H-pyrrole-1-carboxamide] |
